Data taken from patent publication US20180282271A1, “ANTIBIOTIC AMINO ACID MIMETICS” (priority 2017, published 2018).
In brackets after ≈: the same amount, converted by molar mass. Several values for one entry are separate records, joined by “and”; a condition that tells them apart may be missing. Equal entries are not always repeated. Where a SMILES comes first, the peptide text is derived from it. [ ]: non-standard residue; d: D form. The star is where a group is joined. ξ: configuration not given here. ξhCys = NC(CCS)C(=O)O; ξhSer = NC(CCO)C(=O)O; ξC = NC(CS)C(=O)O; NHOH = ON*

Tests used:
E. coli = test: MIC, conventional methods; format: cell-based, Escherichia coli
Procedure: (§1) The following L,L-dipeptides were tested for their minimum inhibitory concentrations against three different bacterial strains as set forth in the table below. The testing protocol followed conventional methods and identified a MIC value reported as micrograms per milliliter (μg/mL). Each of the dipeptides had the following structure: Based on the above results, the sidechain of the methionine mimetic was modified to evaluate the effect of such substitution on MIC values. Again, this test used conventional assays to measure the MIC values of each of these modified mimetics.

S. aureus = test: MIC, conventional methods; format: cell-based, Staphylococcus aureus
Procedure: as §1

P. aer. = test: MIC, conventional methods; format: cell-based, Pseudomonas aeruginosa
Procedure: as §1

[1] = test system: Escherichia coli UNT116-1 (ATCC25922); test: Murine superficial skin infection model; format: in vivo, mice; settings: for Mean log10 CFU/wound: 50 uL topical +4, 8, 12, 16 & 20 hr, sampled +24 hr
Procedure: Evaluation of high dose of novel test article(s) for the treatment of a superficial skin infection in mice caused by Escherichia coli. […] Strain has been previously used separately for this infection at […]. Female 5-6 week old CD-1 (18-22 gm) were used in the studies. The mice were housed in groups of 5 with free access to food and water during the study. Cytoxan 150 mg/kg@15 mg/mL on Day-4 ONLY. The mice were anesthetized and kept sedated during the initial procedure under isoflurane vapors (3%). The fur on the back dorsal surface was shaved using electric clippers followed by 'wet shaving' with a disposable razor. The skin was then sterilized with a betadine wash followed by alcohol swab. An area of the shaved skin was then abraded utilizing a sterile gauze pad. Following this procedure, the skin became visibly damaged and characterized by reddening and glistening but no bleeding. […] The skin was then wiped with an alcohol swab and allowed to dry completely. After stripping of the skin, a bacterial infection was initiated by placing on the skin a 5-10 μL droplet containing approximately […] of both bacterium concentrated from overnight cultures in stationary phase. [table] Sponsors test articles were prepared in 0.05% methylcellulose. Fresh formulations were prepared for each day of dosing. The first application of each compound (N=10 mice/group) to the stripped skin of the mice was at 4 hr post-infection then continued q4 hr. For each treatment 50 uL of formulation was applied. Infection control groups' untreated mice were included with each experiment. The test was terminated 4 h after the last topical treatment. Immediately after the mice were euthanized (photographs of the wounds were taken for each group), the wounds, approximately 2 cm2, were excised, rinsed in sterile PBS and homogenized together with 2 ml of phosphate-buffered saline in a Polytron tissue homogenizer. The homogenates were washed once in phosphate-buffered saline to decrease the concentration of ointment. Suitable dilutions of the homogenates were plated on appropriate agar (with the addition of charcoal to avoid the effects of antibiotic carryover) for the organism to determine the number of living bacteria (CFU).

[2] = test system: Enterococcus faecalis MMX 101/ATCC 29212; test: Broth microdilution MIC, standard CLSI media, ATCC QC organism; format: cell-based
Procedure: (§2) The test organisms were originally received from clinical sources or from the American Type Culture Collection (ATCC, Manassas, Va.). When received, the organisms were subcultured onto an appropriate agar medium. Following incubation, colonies were harvested from the plate and a cell suspension was prepared in broth containing cryoprotectant and frozen at −80° C. Prior to the assay, a frozen vial of the culture was partially thawed and the contents were streaked for isolation onto an appropriate growth medium. The agar plates were incubated overnight at 35° C. Test organisms included staphylococci and enterococci (Table 1), streptococci (Table 2), Enterobacteriaceae (Table 3), lactose non-fermenting Gram-negative bacilli (Table 4), Haemophilus influenzae (Table 5), Neisseria gonorrhoeae (Table 5), and Clostridium difficile (Table 6).
(§3) The standard CLSI broth medium was employed for the purposes of quality control of the comparator drugs for the MIC assay and was only used for testing of relevant ATCC quality control isolates as established by CLSI (1-5).
(§4) MIC values were determined using a broth microdilution method as recommended by CLSI (1-5).
(§5) Column 1 was filled with 300 μL of the investigational and control agents at the appropriate stock concentration (40× of the highest test concentration). The Biomek 2000 was used to make eleven 2-fold serial dilutions to create a “mother plate.” The wells of column 12 contained no drug and served as growth control wells.
(§6) The daughter plates were prepared on the Biomek FX instrument which transferred 5 μL of drug solution from each well of the mother plate to the corresponding well of each daughter plate in a single step.
(§7) Standardized inoculum of each organism was prepared per CLSI methods (1-5). The inoculum for each organism was dispensed into sterile reservoirs divided by length (Beckman Coulter), and the Biomek 2000 was used to inoculate the plates. Daughter plates were placed on the Biomek 2000 work surface reversed so that inoculation took place from low to high drug concentration. The Biomek 2000 delivered 10 PL of standardized inoculum into each well resulting in a target inoculum size of approximately 5×10^5 CFU/mL. The wells of the daughter plates ultimately contained 185 μL of media, 5 μL of drug solution at 40× the test concentration, and 10 μL of bacterial inoculum prepared in media.
(§8) Plates were stacked 3-4 high, covered with a lid on the top plate, placed into plastic bags, and incubated at 35° C. under the appropriate conditions, with C. difficile incubated anaerobically. Plates were viewed post-incubation at 18-24 hr and again at 48 hr from the bottom using a plate viewer. […] MICs were read where visible growth of the organism was inhibited.

[3] = test system: Neisseria gonorrhoeae MMX 683/ATCC 49226; test: as above; format: cell-based
Procedure: as §2, §3, §4, §5, §6, §7, §8

[4] = test system: Pseudomonas aeruginosa MMX 103/ATCC 27853; test: as above; format: cell-based
Procedure: as §2, §3, §4, §5, §6, §7, §8

[5] = test system: Escherichia coli MMX 102/ATCC 25922; test: as above; format: cell-based
Procedure: as §2, §3, §4, §5, §6, §7, §8

[6] = test system: Clostridium difficile MMX 4381/ATCC 700057; test: as above; format: cell-based; settings: Clostridioides difficile, ATCC700057, 48 hr results
Procedure: as §2, §3, §4, §5, §6, §7, §8

[7] = Table 1, L,L-dipeptides varied in T
[8] = Study #2, test articles 700 mg/mL, gentamicin 0.30%
[9] = Study #2, test articles 700 mg/mL, gentamicin 0.30%, topical, +24 hr
[10] = Table 2, side chain Q of the methionine mimetic varied

Compound	MIC E. coli (E. coli; [7]) [µg/mL]	MIC S. aur. (S. aureus; [7]) [µg/mL]	MIC P. aer. (P. aer.; [7]) [µg/mL]	MIC E. coli (E. coli; [10]) [µg/mL]	MIC S. aur. (S. aureus; [10]) [µg/mL]	MIC P. aer. (P. aer.; [10]) [µg/mL]	further results
CSCC[C@H](NC(=O)[C@@H](N)C(C)C)C(=O)NO [C] (H-Val-Met-{NHOH})	520 (≈ 1970 µM)	416 (≈ 1580 µM)	833 (≈ 3160 µM)				
Gentamicin							Mean log10 CFU/wound ([1]; Study #1, test articles 500 mg/mL, gentamicin 0.30%, wounds wrongly sprayed with 70% EtOH for test articles): 2.35 log10 CFU/wound; Mean log10 Change vs. +24 hr ([1]; Study #1, test articles 500 mg/mL, gentamicin 0.30%, topical, +24 hr): −5.37 log10; reduction of bacterial skin burden compared to the 24 hour untreated control [1, 8]: 5.98 log10 CFU/wound; Mean log10 CFU/wound [1, 8]: 2.46 log10 CFU/wound; Log 10 CFU/wound, individual animal [1, 9]: 2.83 Log 10 CFU/wound and 2.35 Log 10 CFU/wound (8×) and 2.95 Log 10 CFU/wound; Mean log10 Change vs. +4 hr [1, 9]: −1.36 log10; Mean log10 Change vs. +24 hr [1, 9]: −5.98 log10; 95.00% CI of diff., Tukey's multiple comparisons test ([1]; Study #2, vs. +4 hr Infection Control): −2.209 to −0.5115; 95.00% CI of diff., Tukey's multiple comparisons test ([1]; Study #2, vs. +24 hr Infection control): −6.678 to −5.292
CCSCCC(NC(=O)CN)C(=O)NO (stereo not drawn) [J] (H-Gly-[ξhCys](Et)-{NHOH})				129 (≈ 548 µM)	60 (≈ 255 µM)	554 (≈ 2350 µM)	
CSCC[C@H](NC(=O)[C@@H]1CCCN1)C(=O)NO [D] (H-Pro-Met-{NHOH})	312 (≈ 1190 µM)	125 (≈ 478 µM)	270 (≈ 1030 µM)				
CSCC[C@H](NC(=O)[C@@H](N)CCC(=O)O)C(=O)NO [Compound F] (H-Glu-Met-{NHOH})	554 (≈ 1890 µM)	312 (≈ 1060 µM)	1660 (≈ 5660 µM)				
COCCC(NC(=O)CN)C(=O)NO (stereo not drawn) [O] (H-Gly-[ξhSer](Me)-{NHOH})				374 (≈ 1820 µM)	112 (≈ 546 µM)	624 (≈ 3040 µM)	
CS(=O)(=O)CCC(NC(=O)CN)C(=O)NO (stereo not drawn) [H]				208 (≈ 821 µM)	104 (≈ 411 µM)	416 (≈ 1640 µM)	
CCSCC(NC(=O)CN)C(=O)NO (stereo not drawn) [M] (H-Gly-[ξC](Et)-{NHOH})				159 (≈ 719 µM)	104 (≈ 470 µM)	832 (≈ 3760 µM)	
C/C(=C\C(=O)OCCCCCCCCC(=O)O)C[C@@H]1OC[C@H](C[C@@H]2O[C@H]2[C@@H](C)[C@H](C)O)[C@@H](O)[C@H]1O [MUP, mupirocin]							MIC ([2]; ATCC29212, 24 hr results): 256 µg/mL (≈ 511 µM); MIC ([2]; ATCC29212, 48 hr results): > 256 µg/mL; MIC ([3]; ATCC49226, 24 hr results): > 256 µg/mL; MIC ([3]; ATCC49226, 48 hr results): > 256 µg/mL; MIC ([4]; ATCC27853, 24 hr results): > 256 µg/mL; MIC ([4]; ATCC27853, 48 hr results): > 256 µg/mL; MIC ([5]; ATCC25922, 24 hr results): > 256 µg/mL; MIC ([5]; ATCC25922, 48 hr results): > 256 µg/mL; MIC [6]: > 256 µg/mL
